Experiments:
Focal adhesion kinase 1 = Focal adhesion kinase 1 (Homo sapiens, UniProt Q05397); experiment: Selectivity interaction (KinaseProfiler screening (Millipore)) EUB0000601a PTK2; settings: at 3 µM
[1] = target: Mitogen-activated protein kinase 1 (Homo sapiens, UniProt P28482); experiment: Selectivity interaction (Kinase panel (33PanQinase(R) Activity Assay)) EUB0000877a MAPK1
[2] = target: Serine/threonine-protein kinase pim-1 (Homo sapiens, UniProt P11309); settings: at 10 µM
[3] = target: Tyrosine-protein kinase CSK (Homo sapiens) (UniProt P41240); experiment: Selectivity interaction (KinomeScan (DiscoverX)) EUB0000092b CSK; settings: at 10 µM
[4] = target: Non-receptor tyrosine-protein kinase TYK2 (Homo sapiens, UniProt P29597); experiment: Selectivity interaction (KinomeScan (DiscoverX)) EUB0000092b TYK2; settings: at 10 µM
[5] = target: Phosphatidylinositol 4,5-bisphosphate 3-kinase catalytic subunit gamma isoform (Homo sapiens) (UniProt P48736); experiment: Selectivity interaction (Ambit KINOMEscan and KiNATiv profiling in Jurkat cells) EUB0000090b PIK3CG; format: cell-based; settings: at 1 µM
[6] = target: Dual specificity protein kinase CLK2 (Homo sapiens, UniProt P49760); experiment: Selectivity interaction (KinomeScan (DiscoverX)) EUB0000045b CLK2
Chain of Dual specificity protein kinase CLK2 (P49760 whole entry, looked up): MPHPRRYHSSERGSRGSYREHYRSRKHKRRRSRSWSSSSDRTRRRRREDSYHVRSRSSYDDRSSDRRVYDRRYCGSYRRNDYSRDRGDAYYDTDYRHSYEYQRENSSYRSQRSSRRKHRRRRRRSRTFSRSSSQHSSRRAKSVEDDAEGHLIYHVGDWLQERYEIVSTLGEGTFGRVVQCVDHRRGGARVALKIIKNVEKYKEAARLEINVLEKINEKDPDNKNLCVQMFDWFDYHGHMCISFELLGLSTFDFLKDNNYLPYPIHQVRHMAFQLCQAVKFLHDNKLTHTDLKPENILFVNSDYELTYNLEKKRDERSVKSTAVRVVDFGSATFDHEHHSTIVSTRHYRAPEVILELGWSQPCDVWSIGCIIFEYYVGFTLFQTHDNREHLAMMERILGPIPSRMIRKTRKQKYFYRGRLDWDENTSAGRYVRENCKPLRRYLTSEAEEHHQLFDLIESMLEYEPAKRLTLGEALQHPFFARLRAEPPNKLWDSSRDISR

[7] = target: Tyrosine-protein kinase JAK2 (Homo sapiens, UniProt O60674); experiment: Selectivity interaction (KinomeScan (DiscoverX)) EUB0000618a JAK2; settings: at 10 µM
Chain of Tyrosine-protein kinase JAK2 (O60674 whole entry): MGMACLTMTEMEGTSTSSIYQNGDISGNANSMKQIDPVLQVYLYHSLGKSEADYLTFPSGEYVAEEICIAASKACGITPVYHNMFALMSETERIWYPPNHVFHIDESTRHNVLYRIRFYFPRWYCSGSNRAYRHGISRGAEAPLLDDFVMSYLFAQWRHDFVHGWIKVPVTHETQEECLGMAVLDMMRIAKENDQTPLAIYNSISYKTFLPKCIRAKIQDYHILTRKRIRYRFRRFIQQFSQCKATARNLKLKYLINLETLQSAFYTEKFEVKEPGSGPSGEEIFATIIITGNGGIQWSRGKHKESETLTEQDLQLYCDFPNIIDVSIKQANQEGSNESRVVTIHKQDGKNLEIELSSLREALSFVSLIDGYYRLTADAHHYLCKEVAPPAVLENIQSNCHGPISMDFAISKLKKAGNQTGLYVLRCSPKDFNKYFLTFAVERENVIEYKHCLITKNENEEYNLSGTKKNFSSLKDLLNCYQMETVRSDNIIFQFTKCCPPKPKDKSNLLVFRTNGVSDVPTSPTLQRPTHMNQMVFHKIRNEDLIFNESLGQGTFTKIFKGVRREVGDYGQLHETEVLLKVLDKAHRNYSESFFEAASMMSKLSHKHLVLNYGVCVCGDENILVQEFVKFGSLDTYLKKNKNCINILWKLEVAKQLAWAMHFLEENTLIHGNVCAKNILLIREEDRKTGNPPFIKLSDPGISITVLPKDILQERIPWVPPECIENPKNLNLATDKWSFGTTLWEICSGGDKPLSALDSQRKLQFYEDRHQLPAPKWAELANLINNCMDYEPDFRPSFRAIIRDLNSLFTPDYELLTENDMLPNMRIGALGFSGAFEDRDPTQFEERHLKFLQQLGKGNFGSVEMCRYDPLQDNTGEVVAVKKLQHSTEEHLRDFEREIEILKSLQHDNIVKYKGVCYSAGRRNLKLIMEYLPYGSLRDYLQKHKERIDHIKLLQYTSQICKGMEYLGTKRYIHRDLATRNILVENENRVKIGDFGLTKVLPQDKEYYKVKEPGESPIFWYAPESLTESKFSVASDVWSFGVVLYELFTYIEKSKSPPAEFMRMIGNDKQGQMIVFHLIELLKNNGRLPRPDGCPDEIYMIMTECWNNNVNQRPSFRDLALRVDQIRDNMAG

[8] = target: Ribosomal protein S6 kinase alpha-1 (Homo sapiens, UniProt Q15418); experiment: Selectivity interaction (ActivX KiNativ screen (ex vivo kinase selectivity in human PBMCs)) EUB0001619a RPS6KA1; format: cell-based; settings: PBMC, at 1 µM
Chain of Ribosomal protein S6 kinase alpha-1 (Q15418 whole entry): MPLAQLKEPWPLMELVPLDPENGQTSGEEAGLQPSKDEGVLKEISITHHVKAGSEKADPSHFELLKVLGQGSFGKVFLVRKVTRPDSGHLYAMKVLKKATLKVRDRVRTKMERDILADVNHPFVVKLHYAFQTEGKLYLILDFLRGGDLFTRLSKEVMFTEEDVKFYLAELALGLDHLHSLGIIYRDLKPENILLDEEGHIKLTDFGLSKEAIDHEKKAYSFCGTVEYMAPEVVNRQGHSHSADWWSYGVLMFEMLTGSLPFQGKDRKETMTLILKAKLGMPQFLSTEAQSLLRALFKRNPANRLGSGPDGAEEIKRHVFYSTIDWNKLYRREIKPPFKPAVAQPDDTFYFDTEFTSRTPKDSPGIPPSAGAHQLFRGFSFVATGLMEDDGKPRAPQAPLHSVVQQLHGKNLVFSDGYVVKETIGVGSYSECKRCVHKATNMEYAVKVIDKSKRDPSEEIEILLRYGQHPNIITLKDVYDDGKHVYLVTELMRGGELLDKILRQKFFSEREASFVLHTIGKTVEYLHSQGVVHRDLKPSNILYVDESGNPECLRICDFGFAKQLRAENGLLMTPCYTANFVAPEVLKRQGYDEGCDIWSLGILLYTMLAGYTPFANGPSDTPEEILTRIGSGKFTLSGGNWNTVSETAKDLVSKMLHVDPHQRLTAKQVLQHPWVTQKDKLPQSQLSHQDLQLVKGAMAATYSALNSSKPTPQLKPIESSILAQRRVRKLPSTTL

[9] = target: Serine/threonine-protein kinase MARK1 (Homo sapiens) (UniProt Q9P0L2); experiment: Selectivity interaction (Upstate Kinase Profiler service (Millipore)) EUB0000056c MARK1; settings: at 1 µM
Chain of Serine/threonine-protein kinase MARK1 (Homo sapiens) (Q9P0L2 whole entry, looked up): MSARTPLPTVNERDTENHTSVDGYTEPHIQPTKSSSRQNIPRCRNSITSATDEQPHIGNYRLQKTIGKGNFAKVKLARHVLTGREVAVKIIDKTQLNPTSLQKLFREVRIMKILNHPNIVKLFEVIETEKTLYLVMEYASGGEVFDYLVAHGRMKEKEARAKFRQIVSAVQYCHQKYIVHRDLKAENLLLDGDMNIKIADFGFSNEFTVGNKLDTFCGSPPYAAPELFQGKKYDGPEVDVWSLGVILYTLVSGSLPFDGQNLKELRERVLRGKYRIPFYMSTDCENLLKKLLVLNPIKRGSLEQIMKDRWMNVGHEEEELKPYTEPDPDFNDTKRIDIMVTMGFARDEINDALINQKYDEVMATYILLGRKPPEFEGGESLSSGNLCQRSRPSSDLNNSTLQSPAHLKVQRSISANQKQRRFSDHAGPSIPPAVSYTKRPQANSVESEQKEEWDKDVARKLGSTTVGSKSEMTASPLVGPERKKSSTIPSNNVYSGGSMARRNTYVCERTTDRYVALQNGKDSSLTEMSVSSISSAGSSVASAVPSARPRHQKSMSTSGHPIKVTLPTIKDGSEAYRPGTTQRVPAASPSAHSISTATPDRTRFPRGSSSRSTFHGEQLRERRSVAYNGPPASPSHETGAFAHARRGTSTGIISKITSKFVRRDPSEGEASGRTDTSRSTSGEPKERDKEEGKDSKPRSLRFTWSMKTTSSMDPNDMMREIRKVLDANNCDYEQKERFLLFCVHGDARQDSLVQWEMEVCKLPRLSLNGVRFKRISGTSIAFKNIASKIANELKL

[10] = target: T1, Receptor-interacting serine/threonine-protein kinase 1 (Homo sapiens) (UniProt Q13546); experiment: Selectivity interaction (KinomeScan (DiscoverX)) EUB0000695a RIPK1; settings: at 100 nM
T1 sequence (whole entry): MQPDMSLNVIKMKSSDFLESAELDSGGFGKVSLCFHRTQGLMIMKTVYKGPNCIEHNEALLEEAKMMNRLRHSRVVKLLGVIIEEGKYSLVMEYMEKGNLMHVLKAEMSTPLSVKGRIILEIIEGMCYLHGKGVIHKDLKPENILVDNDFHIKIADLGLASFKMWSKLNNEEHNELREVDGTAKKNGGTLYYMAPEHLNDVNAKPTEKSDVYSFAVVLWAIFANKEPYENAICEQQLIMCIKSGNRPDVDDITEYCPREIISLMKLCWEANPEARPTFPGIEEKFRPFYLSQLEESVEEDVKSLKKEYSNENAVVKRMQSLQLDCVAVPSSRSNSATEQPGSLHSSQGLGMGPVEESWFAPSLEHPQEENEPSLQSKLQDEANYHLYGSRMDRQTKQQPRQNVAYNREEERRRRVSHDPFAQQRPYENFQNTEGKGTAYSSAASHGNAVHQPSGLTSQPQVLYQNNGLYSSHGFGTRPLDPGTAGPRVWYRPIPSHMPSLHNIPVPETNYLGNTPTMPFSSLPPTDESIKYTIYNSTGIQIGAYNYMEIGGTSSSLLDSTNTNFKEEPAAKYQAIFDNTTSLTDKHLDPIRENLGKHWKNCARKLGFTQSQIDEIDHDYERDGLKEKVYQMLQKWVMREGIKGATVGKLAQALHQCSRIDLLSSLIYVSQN

[11] = target: T2, Membrane-associated tyrosine- and threonine-specific cdc2-inhibitory kinase (Homo sapiens) (UniProt Q99640); experiment: Selectivity interaction (KinomeScan (DiscoverX)) EUB0000695a PKMYT1; settings: at 100 nM
T2 sequence (whole entry): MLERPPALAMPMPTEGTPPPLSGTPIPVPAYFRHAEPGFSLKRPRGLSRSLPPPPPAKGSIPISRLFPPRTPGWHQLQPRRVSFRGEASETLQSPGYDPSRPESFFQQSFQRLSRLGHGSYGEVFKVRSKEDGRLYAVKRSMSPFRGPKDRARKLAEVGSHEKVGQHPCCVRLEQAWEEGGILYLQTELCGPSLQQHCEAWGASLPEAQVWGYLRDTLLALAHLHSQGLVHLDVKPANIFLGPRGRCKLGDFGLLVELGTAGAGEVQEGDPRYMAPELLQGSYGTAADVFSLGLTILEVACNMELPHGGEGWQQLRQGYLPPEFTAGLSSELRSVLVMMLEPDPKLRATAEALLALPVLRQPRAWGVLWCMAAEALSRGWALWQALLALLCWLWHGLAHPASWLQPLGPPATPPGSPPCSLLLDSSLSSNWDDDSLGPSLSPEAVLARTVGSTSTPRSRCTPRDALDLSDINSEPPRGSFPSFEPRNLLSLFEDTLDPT

[12] = target: T3, Tyrosine-protein kinase TXK (Homo sapiens) (UniProt P42681); experiment: Selectivity interaction (KinomeScan (DiscoverX)) EUB0000607a TXK; settings: at 10 µM
T3 sequence (whole entry): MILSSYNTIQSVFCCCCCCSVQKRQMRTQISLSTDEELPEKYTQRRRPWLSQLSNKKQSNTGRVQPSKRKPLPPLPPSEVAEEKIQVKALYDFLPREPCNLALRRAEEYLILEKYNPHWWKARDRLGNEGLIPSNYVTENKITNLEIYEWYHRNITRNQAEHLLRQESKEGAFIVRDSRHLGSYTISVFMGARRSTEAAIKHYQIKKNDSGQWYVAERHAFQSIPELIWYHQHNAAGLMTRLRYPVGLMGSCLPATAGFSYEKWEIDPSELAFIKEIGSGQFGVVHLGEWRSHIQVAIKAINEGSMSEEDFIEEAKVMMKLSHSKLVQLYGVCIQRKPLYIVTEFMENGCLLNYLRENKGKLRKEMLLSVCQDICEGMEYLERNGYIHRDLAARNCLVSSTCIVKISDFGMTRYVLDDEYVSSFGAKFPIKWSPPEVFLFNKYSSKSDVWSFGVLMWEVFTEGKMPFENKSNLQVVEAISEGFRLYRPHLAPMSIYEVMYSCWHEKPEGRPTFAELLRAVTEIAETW

[13] = target: Vascular endothelial growth factor receptor 3 (Homo sapiens, UniProt P35916); experiment: Selectivity interaction (ProQinase) EUB0000171b FLT4
Chain of Vascular endothelial growth factor receptor 3 (P35916 whole entry): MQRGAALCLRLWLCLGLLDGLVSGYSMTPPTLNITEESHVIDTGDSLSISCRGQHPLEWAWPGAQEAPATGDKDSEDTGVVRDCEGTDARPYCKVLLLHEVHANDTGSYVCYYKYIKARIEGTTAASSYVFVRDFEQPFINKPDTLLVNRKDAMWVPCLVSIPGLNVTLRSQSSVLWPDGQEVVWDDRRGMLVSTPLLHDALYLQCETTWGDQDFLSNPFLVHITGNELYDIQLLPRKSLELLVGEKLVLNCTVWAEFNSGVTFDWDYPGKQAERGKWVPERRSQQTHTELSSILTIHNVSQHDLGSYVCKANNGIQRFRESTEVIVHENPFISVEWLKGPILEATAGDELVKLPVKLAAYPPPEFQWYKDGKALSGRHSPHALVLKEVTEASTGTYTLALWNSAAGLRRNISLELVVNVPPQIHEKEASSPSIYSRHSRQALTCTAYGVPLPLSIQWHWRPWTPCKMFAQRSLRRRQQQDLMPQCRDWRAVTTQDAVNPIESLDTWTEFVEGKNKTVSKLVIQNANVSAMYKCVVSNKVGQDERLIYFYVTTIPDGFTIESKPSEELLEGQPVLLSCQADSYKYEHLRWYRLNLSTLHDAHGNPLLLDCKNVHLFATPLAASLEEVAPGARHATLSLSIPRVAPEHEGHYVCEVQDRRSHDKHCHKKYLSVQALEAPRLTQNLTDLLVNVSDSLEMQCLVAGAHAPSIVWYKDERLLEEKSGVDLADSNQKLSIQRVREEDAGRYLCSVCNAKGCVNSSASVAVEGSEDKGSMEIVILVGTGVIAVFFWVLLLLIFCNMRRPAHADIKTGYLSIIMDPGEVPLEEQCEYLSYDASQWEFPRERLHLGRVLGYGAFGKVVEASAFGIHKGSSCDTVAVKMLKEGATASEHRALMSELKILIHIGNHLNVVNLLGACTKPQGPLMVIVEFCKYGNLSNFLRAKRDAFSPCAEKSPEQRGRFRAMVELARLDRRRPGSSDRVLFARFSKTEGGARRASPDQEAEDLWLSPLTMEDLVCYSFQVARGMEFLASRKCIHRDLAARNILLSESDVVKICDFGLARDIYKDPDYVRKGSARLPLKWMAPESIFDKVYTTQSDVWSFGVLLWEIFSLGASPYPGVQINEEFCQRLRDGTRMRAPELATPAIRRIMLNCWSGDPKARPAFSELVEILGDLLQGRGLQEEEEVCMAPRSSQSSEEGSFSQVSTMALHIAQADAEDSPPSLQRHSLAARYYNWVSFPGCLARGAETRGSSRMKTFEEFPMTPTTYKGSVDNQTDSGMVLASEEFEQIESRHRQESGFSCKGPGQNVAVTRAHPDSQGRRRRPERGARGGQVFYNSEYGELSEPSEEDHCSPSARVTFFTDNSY

Chain of Mitogen-activated protein kinase 1 (P28482 whole entry): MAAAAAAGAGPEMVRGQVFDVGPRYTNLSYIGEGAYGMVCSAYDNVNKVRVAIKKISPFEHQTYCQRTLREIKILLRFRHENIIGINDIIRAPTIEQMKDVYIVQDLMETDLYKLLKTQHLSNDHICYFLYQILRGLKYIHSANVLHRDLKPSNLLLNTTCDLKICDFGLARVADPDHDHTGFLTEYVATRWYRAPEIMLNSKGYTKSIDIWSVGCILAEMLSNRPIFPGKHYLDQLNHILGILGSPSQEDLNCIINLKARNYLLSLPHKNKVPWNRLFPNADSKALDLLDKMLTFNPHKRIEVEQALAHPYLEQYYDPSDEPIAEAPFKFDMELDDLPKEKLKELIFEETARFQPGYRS

## CCc1cc(Nc2nccc(-c3c(-c4ccc(OC)c(C(=O)Nc5c(F)cccc5F)c4)nc4ccccn34)n2)c(OC)cc1N1CCC(N2CCN(S(C)(=O)=O)CC2)CC1
Focal adhesion kinase 1
  % of inhibition: 51%

## CCC(=O)N1CC[C@H](Nc2ncnc3c2CN(c2cnc(OC)c(C(F)(F)F)c2)CC3)C1 [LENIOLISIB]
[1]
  IC50: > 10 µM

## CCN(CC)CCCCNc1ncc2cc(-c3cc(OC)cc(OC)c3)c(NC(=O)NC(C)(C)C)nc2n1
[2]
  % of control: 100%

## CCC(=O)N1CCN(c2ccc(-n3c(=O)ccc4cnc5ccc(-c6cnc7ccccc7c6)cc5c43)cc2C(F)(F)F)CC1
[3]
  % of control: 71%
[4]
  % of control: 70%

## CN(C)C/C=C/C(=O)Nc1ccc(C(=O)N2CCCC(Nc3ncc(Cl)c(-c4c[nH]c5ccccc45)n3)C2)cc1 (stereo unspecified)
[5]
  % of control: 92%

## C=CC(=O)Nc1cc(-n2c(=O)ccc3cnc4ccc(-c5ccc(NS(C)(=O)=O)cc5)cc4c32)ccc1C
[6]; at 1 µM
  % of control: 100%
[6]; at 10 µM
  % of control: 50%

## O[C@H]1CC[C@H](Nc2ncc3nc(Nc4c(F)cc(F)cc4F)n([C@H]4CCOC4)c3n2)CC1
[7]
  % of control: 97%

## N#Cc1cccc(-c2c[nH]c3ncnc(N4CCOCC4)c23)c1
[8]
  % of inhibition: 56%

## Cc1ccc(-c2ccc3c(ccc4sc5c(c43)NC[C@@H](C)NC5=O)n2)cn1
[9]
  % of inhibition: 5%

## Cc1cc(F)c(C(=O)Nc2cccc(-c3nncn3C(C)C)n2)cc1-n1cnc(C2CC2)c1
[10]
  % of control: 89%
[11]
  % of control: 98%

## CNC(=O)Nc1ccc(-c2nc(N3CC4CCC(C3)O4)c3cnn(C4CCC5(CC4)OCCO5)c3n2)cc1
[12]
  % of control: 94%

## C=CC(=O)Nc1cccc(C(=O)Nc2ccc(Nc3cc(-c4[nH]c(SC)nc4C)ccn3)cc2)c1
[13]; at 1 µM
  % of control: 73%
[13]; at 5 µM
  % of control: 68%

— ChEMBL document CHEMBL5465560, “Selectivity Literature for EUbOPEN Chemogenomic Library” (2024)
